# Results as given in article PMC3693772, “Protein expression, biochemical pharmacology of signal transduction, and relation to intraocular pressure modulation by bradykinin B2 receptors in ciliary muscle” (Molecular Vision, 2013).
# Square brackets hold non-standard residues; d marks the D form. Peptide text beside a SMILES is read from it. * marks the point of attachment. X1 = COc1ccc(C[C@@H](CN[C@@H](CCCNC(=N)N)C(=O)O)N*)cc1; Hyp = O=C(O)[C@@H]1C[C@@H](O)CN1; 2Thi = N[C@@H](Cc1cccs1)C(=O)O
# Columns and labels:
# human cloned B2 receptor = biological target: T1, human cloned B2 receptor (Homo sapiens, UniProt P30411); assay: [^3H]-BK binding to human cloned B2 receptor (CHO-B2 membranes); conditions: 0.2 nM [^3H]-BK, CHO-B2 homogenates 2.5 µg protein, 60 min, 23 °C, 50 mM Tris/HCl pH 7.4; mean±SEM, up to 19 experiments; read-out: Ligand binding inhibition constant at human cloned B2 receptors (Ki)
# T1 construct: purchased Euroscreen, Gosselies, Belgium; host or cells: CHO cells (recombinant, CHO-B2), used as cell homogenates/membranes
# T1 sequence (P30411 1-391): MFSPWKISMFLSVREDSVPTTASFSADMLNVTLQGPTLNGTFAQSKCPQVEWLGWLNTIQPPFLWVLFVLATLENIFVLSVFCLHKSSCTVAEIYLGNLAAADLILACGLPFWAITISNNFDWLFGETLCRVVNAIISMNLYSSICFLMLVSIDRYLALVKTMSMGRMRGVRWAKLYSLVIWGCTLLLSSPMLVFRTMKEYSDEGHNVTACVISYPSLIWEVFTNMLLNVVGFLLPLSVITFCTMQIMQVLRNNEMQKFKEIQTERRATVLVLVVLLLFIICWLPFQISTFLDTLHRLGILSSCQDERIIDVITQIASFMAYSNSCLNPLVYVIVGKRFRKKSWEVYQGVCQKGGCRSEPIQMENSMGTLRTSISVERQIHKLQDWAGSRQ
# Procedure: However, in view of the difficulty of obtaining sufficient h-CM cells for these initial studies, we decided to use cell membranes of Chinese hamster ovary cells containing the human cloned B2 receptor (CHO-B2; Euroscreen, Gosselies, Belgium). […] Following this incubation, the samples were filtered rapidly under vacuum through glass fiber filters (PerkinElmer) presoaked with 0.3% polyethyleneimine and rinsed several times with an ice-cold 50 mM Tris-HCl buffer using a 96-sample cell harvester (TomTec; Gaithersburg, MD). The filters were air-dried and the radioactivity counted in a beta-scintillation counter (TopCount, PerkinElmer). Data were analyzed using a sigmoidal-fit, iterative algorithm of a computer program designed to automatically fit the new data (Activity base; IDBS, Surrey, UK).
# primary h-CM cells = format: cell-based, human; conditions: for Effect on background level of total PGs, h-CM cells: alone, up to 100 nM, single experiment; for Effect on total PGs induced by 1 µM BK, h-CM cells: pretreatment, challenge with 1 µM BK
# Procedure: (§1) Measurement of prostaglandins in human ciliary muscle and Chinese hamster ovary cells expressing B2 receptors
# (§2) This involved stimulating h-CM cells and CHO-B2 cells with various concentrations of test peptides and measuring the release of various PGs in the extracellular medium. The concentration-dependent effects of these peptides on total PGs, and specifically PGE2, PGF2α, and PGD2 release, were studied. Cells were grown as a monolayer in a 24-well plate (precoated with fibronectin) to confluence and subsequently serum-starved overnight before the experiment. On the day of the experiment, just before the drug was added, the wells were aspirated completely, and 990 µl basal medium and 10 µl 100× series of concentrations of the different peptide agonists were added to achieve the desired final concentrations of each compound (e.g., 0.1 nM to 10 µM). […] At the end of the incubation period, the cellular supernatants were collected and stored at −80 °C or used immediately to determine the PG content. Cell supernatants were tested for total PG levels and sub-species of PGs (PGE2, PGF2α, and PGD2) using specific competitive enzyme immunoassays (Cayman Chemical Co., Ann Arbor, MI) as directed in the manufacturer’s recommended protocols using the supplied standards and reagents. The limits of detection for various PGs were as follows: total PGs=29 pg/ml; PGE2=15 pg/ml; PGF2α=9 pg/ml; PGD2=200 pg/ml.
# [1] = system: CHO-B2 cells (human cloned B2 receptor); format: cell-based, Chinese hamster ovary cells; conditions: compound on its own
# Procedure: as §1, §2
# COX-1 and COX-2 = conditions: ref [43]; cited from earlier work
Ki (human cloned B2 receptor),Compound,"Effect on BK concentration-response of PG release, h-CM cells (primary h-CM cells; 1 µM final, preincubated 5 min, three experiments)","Effect on background level of total PGs, h-CM cells (primary h-CM cells)","Effect on total PGs induced by 1 µM BK, h-CM cells (primary h-CM cells; three experiments)","PG production/release by compound alone, CHO-B2 cells [1]",COX-1/COX-2 inhibition selectivity (COX-1 and COX-2)
73 ± 24.7 nM,CSCC[C@H](N)C(=O)N[C@@H](CCCCN)C(=O)N[C@@H](CCCNC(=N)N)C(=O)N1CCC[C@H]1C(=O)N1CCC[C@H]1C(=O)NCC(=O)N[C@@H](Cc1ccccc1)C(=O)N[C@@H](CO)C(=O)N1CCC[C@H]1C(=O)N[C@@H](Cc1ccccc1)C(=O)N[C@@H](CCCNC(=N)N)C(=O)O [Met-Lys-BK],–,–,–,–,–
11.3 ± 1.1 nM,COc1ccc(C[C@@H](CN[C@@H](CCCNC(=N)N)C(=O)O)NC(=O)[C@@H]2CCCN2C(=O)[C@H](CO)NC(=O)[C@H](Cc2cccs2)NC(=O)CNC(=O)[C@@H]2C[C@@H](O)CN2C(=O)[C@@H]2CCCN2C(=O)[C@@H](N)CCCNC(=N)N)cc1 [RMP-7] (H-RP[Hyp]G[2Thi]SP-X1),–,–,–,–,–
–,Nc1c(CC(=O)O)cccc1C(=O)c1ccc(Br)cc1 [bromfenac],completely abolished PG synthesis and release,inhibited the background level of total PGs,concentration-dependent reduction in total PGs synthesized and secreted,failed to influence PG production,COX-2-selective
–,CC(C(=O)O)c1ccc(-c2ccccc2)c(F)c1 (centres unmarked) [flurbiprofen],–,inhibited the background level of total PGs,"concentration-dependent reduction in total PGs synthesized and secreted, with flurbiprofen much more potent than bromfenac",failed to influence PG production,equally blocks COX-1 and COX-2
